From patent US5304470A, “Process for the enzymatic preparation of protected and unprotected di- and oligopeptides in aqueous solutions” (Forschungszentrum Juelich GmbH, priority 1991, dated 1994)

Source text: (§1) The ethyl ester of tyrosine was reacted.
as §1, §1

Compound	solubility in water [mM]
CCOC(=O)C(CCCNC(=N)N)NC(=O)C=CC(=O)O (stereo not drawn) [Mal-Arg-OEt]	> 1000
CCOC(=O)C(Cc1ccccc1)NC(=O)C=CC(=O)O (stereo not drawn) [Mal-Phe-OEt]	> 700
CCOC(=O)[C@H](Cc1c[nH]c2ccccc12)NC(=O)/C=C\C(=O)O [Mal-Trp-OEt]	> 700
CCOC(=O)[C@H](Cc1ccc(O)cc1)NC(=O)/C=C\C(=O)O [Mal-Tyr-OEt]	> 600
